Results published in US20230339945A1, “METHOD FOR PREPARING A CHELATING LIGAND DERIVED FROM PCTA” (GUERBET, priority 2020, published 2023).

What was measured:
[1] = formation of the gadolinium complex; as described in WO 2014/174120, DOTA-Gd for comparison; cited from earlier work
[2] = decomplexation kinetics (kinetic inertia) in acidic aqueous solution, pH 1.2, 37° C.; format: physicochemical; details: same conditions (pH 1.2, 37° C.); linear gadolinium complexes
Experimental: What is more, iso4 is the group of isomers which has the best kinetic inertia (also known as the kinetic stability) among the four groups isolated by the inventors. Specifically, the inventors evaluated the kinetic inertia of the four groups of isomers by studying their decomplexation kinetics in acidic aqueous solution (pH=1.2), at 37° C. The half-life time values (T1/2) which were determined for each of the groups of isomers are indicated in table 1 below, the half-life time corresponding to the time after which 50% of the amount of complex initially present has been dissociated, according to the following decomplexation reaction (equation 2): […]

[3] = formulation tests (concentrations of trometamol and of free ligand); format: physicochemical
Experimental: Various concentrations of trometamol from 0 to 100 mM were tested.
Various concentrations of macrocyclic ligand of formula (L) from 0 to 2.5 mM were tested.

O=C([O-])CN1CCN(CC(=O)[O-])CCN(CC(=O)O)CCN(CC(=O)[O-])CC1.[Gd+3] [DOTA-Gd, gadolinium complex of 1,4,7,10-tetraazacyclododecane-N,N′,N″,N′″-tetraacetic acid]
log (Ktherm), stability constant [1]: 25.6

CNC(=O)CN(CCN(CCN(CC(=O)[O-])CC(=O)NC)CC(=O)[O-])CC(=O)[O-].[Gd+3] [gadodiamide]
kinetic inertia, dissociation in words [2]: dissociate instantaneously

O=C([O-])CN(CCN(CC(=O)[O-])CC(=O)[O-])CCN(CC(=O)[O-])CC(=O)[O-].[Gd+3] [gadopentetate]
kinetic inertia, dissociation in words [2]: dissociate instantaneously

O=C(CCC(C(=O)O)N1CCN(C(CCC(=O)NCC(O)CO)C(=O)O)Cc2cccc(n2)CN(C(CCC(=O)NCC(O)CO)C(=O)O)CC1)NCC(O)CO (centres unmarked) [macrocyclic ligand of formula (L)]
release of free Gd during the process and during the lifetime of the product ([3]; content of 1 mM (0.08% m/v or 0.2 mol/mol %), 0 to 2.5 mM tested): absence of release of free Gd

NC(CO)(CO)CO [trometamol, Tris(hydroxymethyl)aminomethane]
pH stability of the formulation ([3]; content of 10 mM (0.12% w/v), 0 to 100 mM tested): sufficient to ensure the pH stability of the formulation
